Test results published in US11718631B2, “Sulphonamides and compositions thereof for treating conditions associated with NLRP activity” (Novartis AG, priority 2017, dated 2023).

What follows are compounds tested against T1, NLRP3 (Homo sapiens, UniProt Q96P20) (assay: IL-1β production in PMA-differentiated THP-1 cells stimulated with gramicidin (hTHP-1 assay)). Conditions: hTHP-1 assay containing 2% fetal bovine serum; average IC50, class symbols; read-out: NLRP3 Antagonist, human THP1 NLRP3, IL-1b, Normalized: GeoMean IC50.
T1 construct: IL-1β Production in PMA-Differentiated THP-1 Cells Stimulated with Gramicidin; host or cells: THP-1 cells, PMA-differentiated
Format: cell-based
Procedure: IL-1β Production in PMA-Differentiated THP-1 Cells Stimulated with Gramicidin.
THP-1 cells were purchased from the American Type Culture Collection and sub-cultured according to instructions from the supplier. […] Prior to the experiment THP-1 were treated with PMA (Phorbol 12-myristate 13-acetate) (20 ng/ml) for 16-18 hours. On the day of the experiment the media was removed and adherent cells were detached with trypsin for 5 minutes. […] A vehicle only control was run concurrently with each experiment. Final DMSO concentration was 0.38%.
THP-1 cells were purchased from the American Type Culture Collection and sub-cultured according to instructions from the supplier. […] Prior to the experiment THP-1 were treated with PMA (Phorbol 12-myristate 13-acetate) (20 ng/ml) for 16-18 hours. Compounds were dissolved in dimethyl sulfoxide (DMSO) to generate a 30 mM stock. On the day of the experiment the media was removed and adherent cells were detached with trypsin for 5 minutes. […] Final DMSO concentration was at 0.37%. Cells were incubated with compounds for 1 hour and then stimulated with gramicidin (5 μM) (Enzo) for 2 hours. Plates were then centrifuged at 340 g for 5 min. Cell free supernatant (40 μL) was collected using a 96-channel PlateMaster (Gilson) and the production of IL-1p was evaluated by HTRF (cisbio).
IL-1p Production in PMA-Differentiated THP-1 Cells Stimulated with Gramicidin.
THP-1 cells were purchased from the American Type Culture Collection and sub-cultured according to instructions from the supplier. […] Prior to the experiment, compounds were dissolved in dimethyl sulfoxide (DMSO) to generate a 30 mM stock. […] DMSO was backfilled in the plate to achieve a final DMSO assay concentration of 0.37%. The plate was then sealed and stored at room temperature until required.
THP-1 cells were treated with PMA (Phorbol 12-myristate 13-acetate) (20 ng/ml) for 16-18 hours. On the day of the experiment the media was removed and adherent cells were detached with trypsin for 5 minutes. […] The plates were incubated for 18 h at 4° C. and read using the preset HTRF program (donor emission at 620 nm, acceptor emission at 668 nm) of the SpectraMax i3x spectrophotometer (Molecular Devices, software SoftMax 6).

T1 sequence (Q96P20 whole entry): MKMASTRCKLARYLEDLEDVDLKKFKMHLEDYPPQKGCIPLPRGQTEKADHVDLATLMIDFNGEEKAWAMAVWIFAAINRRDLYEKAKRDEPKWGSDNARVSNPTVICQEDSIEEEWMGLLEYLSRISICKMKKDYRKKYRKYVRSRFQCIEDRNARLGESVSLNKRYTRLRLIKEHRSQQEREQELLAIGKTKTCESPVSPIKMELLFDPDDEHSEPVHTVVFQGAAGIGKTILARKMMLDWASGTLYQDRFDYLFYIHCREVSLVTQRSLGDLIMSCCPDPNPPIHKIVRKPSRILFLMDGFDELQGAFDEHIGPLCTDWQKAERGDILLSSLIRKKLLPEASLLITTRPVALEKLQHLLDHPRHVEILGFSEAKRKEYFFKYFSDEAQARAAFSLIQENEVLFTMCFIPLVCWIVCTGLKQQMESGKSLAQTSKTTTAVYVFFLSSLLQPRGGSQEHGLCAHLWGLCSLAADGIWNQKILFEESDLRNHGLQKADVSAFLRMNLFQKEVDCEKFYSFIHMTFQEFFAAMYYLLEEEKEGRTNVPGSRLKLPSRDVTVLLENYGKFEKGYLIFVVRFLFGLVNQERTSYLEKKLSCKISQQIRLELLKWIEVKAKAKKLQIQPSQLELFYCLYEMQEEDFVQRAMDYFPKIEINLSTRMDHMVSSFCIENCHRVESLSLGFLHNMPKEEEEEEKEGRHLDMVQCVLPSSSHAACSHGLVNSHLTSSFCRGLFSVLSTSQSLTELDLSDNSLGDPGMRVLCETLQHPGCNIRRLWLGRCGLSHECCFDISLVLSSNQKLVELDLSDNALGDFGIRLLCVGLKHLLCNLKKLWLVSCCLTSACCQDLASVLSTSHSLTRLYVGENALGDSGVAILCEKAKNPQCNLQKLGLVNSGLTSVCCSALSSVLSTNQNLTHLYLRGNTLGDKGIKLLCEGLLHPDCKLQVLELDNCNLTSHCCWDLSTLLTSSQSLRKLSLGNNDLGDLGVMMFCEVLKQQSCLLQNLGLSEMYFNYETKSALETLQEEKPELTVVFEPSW

Q: `CC(C)c1cc(-c2ccc3c(c2)OC(F)(F)O3)cc(C(C)C)c1CC(=O)NS(=O)(=O)c1ccc(CN(C)C)cc1` [Compound 113, 2-[4-(2,2-difluoro-1,3-benzodioxol-5-yl)-2,6-di(propan-2-yl)phenyl]-N-[4-[(dimethylamino)methyl]phenyl] sulfonylacetamide] was tested. Which IC50 did it give?
A: The IC50 was 200 to 1000 nM.

Q: How did the IC50 turn out when `C=C(C)c1cc(C(C)C)c(CC(=O)NS(=O)(=O)c2ccc(CN(C)C)cc2)c(C(C)C)c1` [Compound 147] was run?
A: Its IC50 is 1000 to 5000 nM.

Q: How did the IC50 turn out when `C/C=C(\C)c1cc(C(C)C)c(CC(=O)NS(=O)(=O)c2ccc(CN(C)C)cc2)c(C(C)C)c1` [Compound 145] was run?
A: Its IC50 is 1000 to 5000 nM.

Q: Which IC50 does the source give for `CC(C)c1cc(-c2ccccc2OCc2ccccc2)cc(C(C)C)c1CC(=O)NS(=O)(=O)c1ccc(CN(C)C)cc1` [Compound 102, N-[4-[(dimethylamino)methyl]phenyl] sulfonyl-2-[4-(2-phenylmethoxy-phenyl)-2,6-di(propan-2-yl)phenyl]acetamide] here?
A: Its IC50 is 5000 to 30000 nM.

Q: How did the IC50 turn out when `CC(C)c1cc(-c2ccc3c(ccn3C(=O)OC(C)(C)C)c2)cc(C(C)C)c1CC(=O)NS(=O)(=O)c1ccc(CN(C)C)cc1` [Compound 115, tert-butyl 5-[4-[2-[[4-[(dimethylamino)methyl]phenyl]sulfonylamino]-2-oxoethyl]-3,5-di(propan-2-yl)phenyl]indole-1-carboxylate] was run?
A: Its IC50 is 5000 to 30000 nM.

Q: `CC(C)c1cc(CC2CCCCC2)cc(C(C)C)c1CC(=O)NS(=O)(=O)c1ccc(CN(C)C)cc1` [Compound 378, 2-[4-(cyclohexylmethyl)-2,6-bis(propan-2-yl)phenyl]-N-{4-[(dimethylamino)methyl]benzenesulfonyl}acetamide] was tested. Which IC50 did it give?
A: Its IC50 is 5000 to 30000 nM.

Q: `CC(C)c1cc(-c2ccccc2S(C)(=O)=O)cc(C(C)C)c1CC(=O)NS(=O)(=O)c1ccc(CN(C)C)cc1` [Compound 125, N-[4-[(dimethylamino)methyl]phenyl] sulfonyl-2-[4-(2-methylsulfonyl-phenyl)-2,6-di(propan-2-yl)phenyl]acetamide] was tested. Which IC50 did it give?
A: Its IC50 is 5000 to 30000 nM.

Q: Which IC50 does the source give for `CC(C)c1cc(-c2ccc(Cl)c(F)c2)cc(C(C)C)c1CC(=O)NS(=O)(=O)c1ccc(CN(C)C)cc1` [Compound 120, 2-[4-(4-chloro-3-fluorophenyl)-2,6-di(propan-2-yl)phenyl]-N-[4-[(dimethylamino)methyl]phenyl] sulfonylacetamide] here?
A: The IC50 was 1000 to 5000 nM.

Q: Which IC50 does the source give for `CC(C)c1cc(-c2ccc(F)c(Cl)c2)cc(C(C)C)c1CC(=O)NS(=O)(=O)c1ccc(CN(C)C)cc1` [Compound 112, 2-[4-(3-chloro-4-fluorophenyl)-2,6-di(propan-2-yl)phenyl]-N-[4-[(dimethylamino)methyl]phenyl] sulfonylacetamide] here?
A: The IC50 was 200 to 1000 nM.

Q: With `CC(C)c1cc(-c2ccc3ccccc3c2)cc(C(C)C)c1CC(=O)NS(=O)(=O)c1ccc(CN(C)C)cc1` [Compound 139, N-[4-[(dimethylamino)methyl]phenyl] sulfonyl-2-[4-naphthalen-2-yl-2,6-di(propan-2-yl)phenyl] acetamide] as the compound, how does the IC50 read?
A: Its IC50 is 40 to 200 nM.

Q: `Cc1ccc(-c2cc(C(C)C)c(CC(=O)NS(=O)(=O)c3ccc(CN(C)C)cc3)c(C(C)C)c2)cc1` [Compound 110, N-[4-[(dimethylamino)methyl]phenyl] sulfonyl-2-[4-(4-methylphenyl)-2,6-di(propan-2-yl)phenyl] acetamide] was tested. Which IC50 did it give?
A: Its IC50 is 1000 to 5000 nM.

Q: Which IC50 does the source give for `CC(C)c1cc(C2CCCc3ccccc32)cc(C(C)C)c1CC(=O)NS(=O)(=O)c1ccc(CN(C)C)cc1` (stereo not shown) [Compound 321, 2-[2,6-bis(propan-2-yl)-4-(1,2,3,4-tetrahydronaphthalen-1-yl)phenyl]-N-{4-[(dimethylamino)methyl]benzene-sulfonyl}acetamide] here?
A: The IC50 was 1000 to 5000 nM.

Q: With `C#Cc1cc(C(C)C)c(CC(=O)NS(=O)(=O)c2ccc(C(C)N(C)C)cc2)c(C(C)C)c1` (stereo not shown) [Compound 379] as the compound, how does the IC50 read?
A: The IC50 was 1000 to 5000 nM.

Q: For `CC(C)c1cc(C2CCC(C)(C)CC2)cc(C(C)C)c1CC(=O)NS(=O)(=O)c1ccc(CN(C)C)cc1` [Compound 316, N-{4-[(dimethylamino)methyl]benzene-sulfonyl}-2-[4-(4,4-dimethylcyclohexyl)-2,6-bis(propan-2-yl)phenyl]acetamide], which IC50 is on record?
A: The IC50 was 1000 to 5000 nM.

Q: For `CC(C)c1cc(C2CCc3ccccc32)cc(C(C)C)c1CC(=O)NS(=O)(=O)c1ccc(CN(C)C)cc1` (stereo not shown) [Compound 322, 2-[4-(2,3-dihydro-1H-inden-1-yl)-2,6-bis(propan-2-yl)phenyl]-N-{4-[(dimethylamino)methyl]benzene-sulfonyl}acetamide], which IC50 is on record?
A: The IC50 was 200 to 1000 nM.

Q: How did the IC50 turn out when `CC(C)c1cc(-c2cccc(Cl)c2)cc(C(C)C)c1CC(=O)NS(=O)(=O)c1ccc(CN(C)C)cc1` [Compound 108, 2-[4-(3-chlorophenyl)-2,6-di(propan-2-yl)phenyl]-N-[4-[(dimethylamino)methyl]phenyl] sulfonylacetamide] was run?
A: Its IC50 is 200 to 1000 nM.

Q: For `CC(C)c1cc(C2=CCCC2)cc(C(C)C)c1CC(=O)NS(=O)(=O)c1ccc(CN(C)C)cc1` [Compound 107, 2-[4-(cyclopenten-1-yl)-2,6-di(propan-2-yl)phenyl]-N-[4-[(dimethylamino)methyl]phenyl] sulfonylacetamide], which IC50 is on record?
A: The IC50 was 1000 to 5000 nM.

Q: With `CC(C)c1cc(C2CCCC2)cc(C(C)C)c1CC(=O)NS(=O)(=O)c1ccc(CN(C)C)cc1` [Compound 355, 2-[4-cyclopentyl-2,6-bis(propan-2-yl)phenyl]-N-{4-[(dimethylamino)methyl]benzene-sulfonyl}acetamide] as the compound, how does the IC50 read?
A: The IC50 was 5000 to 30000 nM.

Q: For `CC(C)c1cc(CC2=CCCCC2)cc(C(C)C)c1CC(=O)NS(=O)(=O)c1ccc(CN(C)C)cc1` [Compound 377, 2-[4-(cyclohex-1-en-1-ylmethyl)-2,6-bis(propan-2-yl)phenyl]-N-{4-[(dimethylamino)methyl]benzenesulfonyl}acetamide], which IC50 is on record?
A: Its IC50 is 1000 to 5000 nM.

Q: With `CC(C)c1cc(C2Cc3ccccc3C2)cc(C(C)C)c1CC(=O)NS(=O)(=O)c1ccc(CN(C)C)cc1` [Compound 323, 2-[4-(2,3-dihydro-1H-inden-2-yl)-2,6-bis(propan-2-yl)phenyl]-N-{4-[(dimethylamino)methyl]benzene-sulfonyl}acetamide] as the compound, how does the IC50 read?
A: The IC50 was 1000 to 5000 nM.

Q: For `CC(C)c1cc(Cl)cc(C(C)C)c1CC(=O)NS(=O)(=O)c1ccc(CN(C)C)cc1` [Compound 149], which IC50 is on record?
A: The IC50 was 1000 to 5000 nM.

Q: Which IC50 does the source give for `Cc1ccc(-c2cc(C(C)C)c(CC(=O)NS(=O)(=O)c3ccc(CN(C)C)cc3)c(C(C)C)c2)cc1F` [Compound 111, N-[4-[(dimethylamino)methyl]phenyl] sulfonyl-2-[4-(3-fluoro-4-methylphenyl)-2,6-di(propan-2-yl)phenyl]acetamide] here?
A: The IC50 was 1000 to 5000 nM.

Q: Which IC50 does the source give for `Cc1ccc(-c2cc(C(C)C)c(CC(=O)NS(=O)(=O)c3ccc(CN(C)C)cc3)c(C(C)C)c2)cc1C` [Compound 118, N-[4-[(dimethylamino)methyl]phenyl] sulfonyl-2-[4-(3,4-dimethylphenyl)-2,6-di(propan-2-yl)phenyl]acetamide] here?
A: Its IC50 is 200 to 1000 nM.

Q: How did the IC50 turn out when `Cc1ccc(-c2cc(C(C)C)c(CC(=O)NS(=O)(=O)c3ccc(CN(C)C)cc3)c(C(C)C)c2)cc1Cl` [Compound 117, 2-[4-(3-chloro-4-methylphenyl)-2,6-di(propan-2-yl)phenyl]-N-[4-[(dimethylamino)methyl]phenyl] sulfonylacetamide] was run?
A: Its IC50 is 200 to 1000 nM.

Q: For `CC(C)c1cc(C#CC2CCCCC2)cc(C(C)C)c1CC(=O)NS(=O)(=O)c1ccc(CN(C)C)cc1` [Compound 324, 2-[4-(2-cyclohexylethynyl)-2,6-bis(propan-2-yl)phenyl]-N-{4-[(dimethylamino)methyl]benzene-sulfonyl}acetamide], which IC50 is on record?
A: Its IC50 is 40 to 200 nM.

Q: `CC(C)c1cc(Br)cc(C(C)C)c1CC(=O)NS(=O)(=O)c1ccc(CN(C)C)cc1` [Compound 148] was tested. Which IC50 did it give?
A: The IC50 was 1000 to 5000 nM.

Q: How did the IC50 turn out when `CC(C)c1cc(-c2ccccc2CO)cc(C(C)C)c1CC(=O)NS(=O)(=O)c1ccc(CN(C)C)cc1` [Compound 124, N-[4-[(dimethylamino)methyl]phenyl] sulfonyl-2-[4-[2-(hydroxymethyl)phenyl]-2,6-di(propan-2-yl)phenyl]acetamide] was run?
A: Its IC50 is 5000 to 30000 nM.

Same assay, conditions: hTHP-1 assay containing 2% fetal bovine serum; average IC50, given as numeric bound; read-out: NLRP3 Antagonist, human THP1 NLRP3, IL-1b, Normalized: GeoMean IC50

Q: `CC(C)c1cc(C(O)c2ccccc2)cc(C(C)C)c1CC(=O)NS(=O)(=O)c1ccc(CN(C)C)cc1` (stereo not shown) [Compound 372, N-{4-[(dimethylamino)methyl]benzenesulfonyl}-2-(4-[hydroxy(phenyl)methyl]-2,6-bis(propan-2-yl)phenyl)acetamide] was tested. Which IC50 did it give?
A: The IC50 was over 30000 nM.
